# Results reported in patent US8710298B2, “Heat stable variants of plant adenosine diphosphate glucose pyrophosphorylase small subunit” (University of Florida Research Foundation, Inc., priority 2003, dated 2014).
# Columns and labels:
# [1] = system: maize endosperm ADP-glucose pyrophosphorylase (AGP) variant QTCL (small subunit BT2 with tyrosine 36 to cysteine and glutamine inserted between serine 34 and …); experiment: Activation and inhibition (Assay C, forward direction), QTCL AGP; assay type: biochemical, maize (Zea mays); conditions: QTCL compared to wild type AGP
# Procedure: (§1) The QTCL construct (SEQ ID NO:7) encodes a maize AGP small subunit protein (SEQ ID NO:8) having a change from a tyrosine at amino acid position 36 to a cysteine and an insertion of a glutamine between the serine at amino acid position 34 and the threonine at amino acid position 35.
# (§2) The 3-Phosphoglyceric acid (3-PGA) was added at varying amounts, as specified. When varied, the substrates ranged from 0-5 mM. Reactions were terminated after 5 minutes by boiling in a water bath for 1 minute. […] The change in absorbance between the blank and the reaction was used to calculate the amount to PPi produced for each sample. All reactions were linear with time and enzyme concentration. All assay tubes were pre-warmed to 37° C. prior to assaying and were initiated by the addition of enzyme.
# [2] = target: T1, maize endosperm ADP-glucose pyrophosphorylase (AGP) variant QTCL (small subunit BT2 with tyrosine 36 to cysteine and glutamine inserted between serine 34 and th (Zea mays, UniProt P55241+Q947C0, INS34Q/Y36C)); experiment: as above; assay type: biochemical; conditions: QTCL; effector varied 0-3 mM, 37° C., 10 minutes
# T1 construct: purified heterotetramer
# T1 sequence (Q947C0 with tags, fused parts or gaps INS34Q/Y36C): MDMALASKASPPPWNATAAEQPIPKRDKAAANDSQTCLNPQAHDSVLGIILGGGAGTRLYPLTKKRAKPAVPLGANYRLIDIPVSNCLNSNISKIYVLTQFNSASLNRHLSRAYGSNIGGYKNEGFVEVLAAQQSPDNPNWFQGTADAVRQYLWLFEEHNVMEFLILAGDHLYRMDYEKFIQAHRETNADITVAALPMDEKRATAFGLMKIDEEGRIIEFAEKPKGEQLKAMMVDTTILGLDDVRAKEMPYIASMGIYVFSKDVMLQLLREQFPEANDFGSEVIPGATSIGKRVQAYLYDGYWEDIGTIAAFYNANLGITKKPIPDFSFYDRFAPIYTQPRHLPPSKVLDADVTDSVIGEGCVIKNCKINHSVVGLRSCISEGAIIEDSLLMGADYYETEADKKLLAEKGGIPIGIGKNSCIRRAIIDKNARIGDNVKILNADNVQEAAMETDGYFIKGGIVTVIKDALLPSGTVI
# T1 sequence (P55241 46-516): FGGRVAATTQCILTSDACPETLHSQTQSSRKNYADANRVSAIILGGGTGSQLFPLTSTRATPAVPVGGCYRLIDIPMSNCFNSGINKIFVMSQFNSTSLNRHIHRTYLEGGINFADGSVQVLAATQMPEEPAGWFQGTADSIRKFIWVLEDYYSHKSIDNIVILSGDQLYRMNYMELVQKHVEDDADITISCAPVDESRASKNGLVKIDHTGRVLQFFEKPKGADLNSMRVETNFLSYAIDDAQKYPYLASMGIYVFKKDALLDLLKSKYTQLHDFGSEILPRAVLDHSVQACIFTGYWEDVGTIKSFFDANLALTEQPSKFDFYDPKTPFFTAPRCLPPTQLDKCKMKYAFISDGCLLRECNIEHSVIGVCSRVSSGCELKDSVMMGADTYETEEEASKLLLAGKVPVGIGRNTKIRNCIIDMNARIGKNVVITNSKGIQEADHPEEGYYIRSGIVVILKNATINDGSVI
# Procedure: as §1, §2
# [3] = target: T2, maize endosperm ADP-glucose pyrophosphorylase (AGP), wild type (small subunit BT2 WT-STYL, SEQ ID NO: 2, with wild type large subunit Shrunken-2) (Zea mays, UniProt P55241+Q947C0); conditions: effector varied 0-3 mM, 37° C., 10 minutes
# T2 sequence (Q947C0 1-475): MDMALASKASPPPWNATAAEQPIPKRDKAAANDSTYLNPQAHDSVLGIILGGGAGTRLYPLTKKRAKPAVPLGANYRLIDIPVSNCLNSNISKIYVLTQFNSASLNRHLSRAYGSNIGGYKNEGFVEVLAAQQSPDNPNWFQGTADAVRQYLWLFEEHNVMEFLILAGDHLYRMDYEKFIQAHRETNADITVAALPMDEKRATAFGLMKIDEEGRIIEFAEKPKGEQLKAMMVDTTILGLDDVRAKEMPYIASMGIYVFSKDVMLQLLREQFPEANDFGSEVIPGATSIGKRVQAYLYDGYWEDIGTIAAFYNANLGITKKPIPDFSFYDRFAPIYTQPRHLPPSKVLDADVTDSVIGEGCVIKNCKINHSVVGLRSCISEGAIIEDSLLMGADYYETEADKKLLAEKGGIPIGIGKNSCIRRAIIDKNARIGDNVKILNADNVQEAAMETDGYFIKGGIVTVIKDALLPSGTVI
# T2 sequence (P55241 46-516): T1 sequence (P55241 46-516)
# Procedure: (§3) Protein inductions were as described by Greene and Hannah (1998) with a few modifications.
# as §2
# To determine the extent of activation with or with out 3-PGA, 0.1 or 2.0 μg respectively, of purified maize wt-AGP was incubated for 12.5 minutes in the forward assay. To determine the activation constant for the maize wt AGP, 0.2 μg of purified maize wt-AGP was incubated for 12.5 minutes in the forward assay. 3-PGA concentrations ranged from 0-5.0 mM. Curves were fit using Graph Pad Prism using non-linear regression.
# [4] = target: T2, maize endosperm ADP-glucose pyrophosphorylase (AGP), wild type (small subunit BT2 WT-STYL, SEQ ID NO: 2, with wild type large subunit Shrunken-2)
# Procedure: E. coli strain AC70R1-504, which lacks the functional AGP gene and cannot synthesize glycogen, was transformed with both pMoncSh2 and pMoncBt2 (plasmids containing the large and small subunit of wt-AGP respectively). An overnight culture was grown with constant shaking at 225 rpm at 37° C. in LB media containing 75 ug/ml spectinomycin and 50 μg/ml kanamycin. An aliquot of the overnight culture (12.5 ml) was used to inoculate a 1 L flask containing the same media. The 1 L flask was grown until the OD600 reached 0.5-0.6. The cultures were cooled to room temperature and protein expression was induced by the addition of 0.2 mM isopropyl-beta-D-thiogalactoside (IPTG) and 0.02 mg/ml nalidixic acid. Expression continued for 3 hours at room temperature with constant shaking. Cells were centrifuged at 8000×g supernatant removed and stored as pellets at −80° C.
# The 3-Phosphoglyceric acid (3-PGA) was added at varying amounts, as specified. When varied, the substrates ranged from 0-5 mM. Reactions were terminated after 5 minutes by boiling in a water bath for 1 minute. […] The change in absorbance between the blank and the reaction was used to calculate the amount to PPi produced for each sample. All reactions were linear with time and enzyme concentration. All assay tubes were pre-warmed to 37° C. prior to assaying and were initiated by the addition of enzyme. […]
# [5] = target: T1, maize endosperm ADP-glucose pyrophosphorylase (AGP) variant QTCL (small subunit BT2 with tyrosine 36 to cysteine and glutamine inserted between serine 34 and th); experiment: Enzyme kinetics (substrates), forward reaction, purified QTCL AGP; assay type: biochemical
# Procedure: The QTCL construct (SEQ ID NO:7) encodes a maize AGP small subunit protein (SEQ ID NO:8) having a change from a tyrosine at amino acid position 36 to a cysteine and an insertion of a glutamine between the serine at amino acid position 34 and the threonine at amino acid position 35. […] The mutations were verified by sequence analysis.
# as §3, §2
# The QTCL mutant and wild type enzymes were purified from E. coli as described in the materials and methods.
SMILES,"Ka for the QTCL enzyme, fold higher than wild type AGP [1]",Ka (3-PGA) [2],Ka (3-PGA) [3],"Vmax (ATP) ([4]; forward reaction, 10 mM 3-PGA, 37° C., 10 minutes)","Km ([4]; read-out: Km for ATP, forward reaction, 10 mM 3-PGA, 37° C., 10 minutes)","Vmax (ATP) ([5]; 10 mM 3-PGA, 37° C., 10 minutes)","Km ([5]; read-out: Km for ATP, 10 mM 3-PGA, 37° C., 10 minutes)"
"O=C(O)[C@H](O)COP(=O)(O)O [3-PGA, 3-phosphoglyceric acid]",approximately 2 -fold,1.08 ± 0.13,0.57 ± 0.055,–,–,–,–
Nc1ncnc2c1ncn2[C@@H]1O[C@H](COP(=O)(O)OP(=O)(O)OP(=O)(O)O)[C@@H](O)[C@H]1O [ATP],–,–,–,9.25 ± 0.32 µmol/min/mg,66 ± 10 µM,23.4 ± 0.53 µmol/min/mg,140 ± 10 µM
